Test results reported in patent US9453028B2, “Protein kinase C inhibitors and uses thereof” (Rigel Pharmaceuticals, Inc., priority 2009, dated 2016).

Tests used:
PKC-beta = biological target: T1, PKC-beta (Homo sapiens, UniProt P05771); assay: Protein Kinase C assay (fluorescence polarization), PKC-beta; assay type: biochemical
T1 construct: purchased Oxford Biomedical Research
Procedure: (§1) The inhibition of PKC activity was measured by monitoring the production of phosphorylated peptide by fluorescence polarization at different concentrations of the inhibitor. Reactions were carried out in 96-well plate format with a total volume of 20 μL containing 20 mM HEPES, pH 7.4, 5 mM MgCl2, 0.2 mM CaCl2, 1 mM DTT, 0.02% Brij-35, 0.1 mg/mL phosphatidylserine, 0.02 mg/mL dioleoyl-sn-glycerol and 5 μM each of ATP and the peptide substrate. Compounds were first diluted serially in DMSO and then transferred to a solution containing the above concentrations of HEPES, MgCl2, CaCl2, DTT, and Brij-35 to yield 5× compound solutions in 2% DMSO, which was then added to the reaction solution. Reactions were initiated by the addition of PKC at a typical concentration as described in the table below, and then allowed to incubate at room temperature for 20 minutes. At the end of this time, a combination of quench (EDTA) and detection (peptide tracer and antibody) reagents was added using the protocol of Invitrogen P2748 (Carlsbad, Calif.), a Protein Kinase C Fluorescence polarization Assay Kit. After a 30 minute period of incubation, the amount of phosphorylated peptide generated was measured by fluorescence polarization (Ex=485 nm, Em=535 nm) using a Tecan Polarian instrument (Switzerland).
Human recombinant PKC β1 is obtained from Oxford Biomedical Research and is used under the assay conditions as described under Section A.1 above.
(§2) Several subject compounds were tested according to procedures in the “Characterization of Functional Properties” section. PKC kinase activity was measured using the procedure Section A.1 (Protein Kinase C assay) with the appropriate isoform. The whole cell assay was run according to the procedure in Section A.2 (IL-2 ELISA, Human primary T cell, anti-CD3+CD28+ Assays). […] Blank entries indicate that the IC50 was not determined.

Human primary T cell = assay: IL-2 ELISA, human primary T cell, anti-CD3+CD28+ whole cell assay; assay type: cell-based; conditions: IL-2 by ELISA, human primary T cells stimulated with anti-CD3+CD28
Procedure: 2. IL-2 ELISA, Human Primary T Cell, Anti-CD3+CD28+ Assays
Human primary T cells were prepared as follows. Whole blood was obtained from a healthy volunteer, mixed 1:1 with PBS, layered on to Ficoll Hypaque (Amersham Pharmacia Biotech, Piscataway, N.J., Catalog #17-1440-03) in 2:1 blood/PBS:ficoll ratio and centrifuged for 30 minutes at 4° C. at 1750 rpm. The cells at the serum:ficoll interface were recovered and washed twice with 5 volumes of PBS. These freshly isolated human peripheral blood mononuclear cells were cultured in Yssel's medium containing 40 U/mL IL2 in a flask pre-coated with 1 μg/mL αCD3 and 5 μg/mL αCD28 (Anti-Human CD3, BD Pharmingen Catalog #555336, Anti-Human CD28, Beckman Coulter Catalog #1M1376). The cells were stimulated for 3-4 days, then transferred to a fresh flask and maintained in RPMI (RPMI-1640 with L-Glutamine; Mediatech, Inc., Herndon Va., cat. #10-040-CM) with 10% FBS and 40 U/mL IL-2. The primary T-cells were then washed twice with PBS to remove the IL-2.
Human primary T cells (100,000 cells per well) were pre-incubated with or without test compound in Yssel's medium for 1 hr at 37° C. Cells were then stimulated by transferring them to round-bottom 96-well plates pre-coated with 1 μg/ml αCD3 and 5 μg/ml αCD28. For counter assay, cells were instead stimulated by adding 8× stock solutions of PMA and ionomycin in Yssels (for final concentrations of 0.5 ng/ml PMA and 0.1 μM ionomycin, both from Calbiochem). Cells were incubated at 37° C. for 24 hours before 100 μL supernatants were harvested for quantification of IL-2 by ELISA using Human IL-2 Duoset ELISA Kit from R and D Systems, Cat. # DY202E.
as §2

PKC-theta = biological target: T2, PKC-theta (Homo sapiens, UniProt Q04759); assay: Protein Kinase C assay (fluorescence polarization), PKC-theta; assay type: biochemical
T2 construct: purchased Upstate Biotechnologies, Temecula, CA 14-444
Procedure: as §1
Human recombinant PKC θ is used under the assay conditions as described above.
as §2

PKC-alpha = biological target: T3, PKC-alpha (Homo sapiens, UniProt P17252); assay: Protein Kinase C assay (fluorescence polarization), PKC-alpha; assay type: biochemical
T3 construct: purchased Oxford Biomedical Research
Procedure: as §1
Human recombinant PKC α is obtained from Oxford Biomedical Research and is used under the assay conditions as described under Section A.1 above.
as §2

PKC-epsilon = biological target: T4, PKC-epsilon (Homo sapiens, UniProt Q02156); assay: Protein Kinase C assay (fluorescence polarization), PKC-epsilon; assay type: biochemical
T4 construct: purchased Upstate Biotechnologies, Temecula, CA 14-518
T4 sequence (Q02156 1-737): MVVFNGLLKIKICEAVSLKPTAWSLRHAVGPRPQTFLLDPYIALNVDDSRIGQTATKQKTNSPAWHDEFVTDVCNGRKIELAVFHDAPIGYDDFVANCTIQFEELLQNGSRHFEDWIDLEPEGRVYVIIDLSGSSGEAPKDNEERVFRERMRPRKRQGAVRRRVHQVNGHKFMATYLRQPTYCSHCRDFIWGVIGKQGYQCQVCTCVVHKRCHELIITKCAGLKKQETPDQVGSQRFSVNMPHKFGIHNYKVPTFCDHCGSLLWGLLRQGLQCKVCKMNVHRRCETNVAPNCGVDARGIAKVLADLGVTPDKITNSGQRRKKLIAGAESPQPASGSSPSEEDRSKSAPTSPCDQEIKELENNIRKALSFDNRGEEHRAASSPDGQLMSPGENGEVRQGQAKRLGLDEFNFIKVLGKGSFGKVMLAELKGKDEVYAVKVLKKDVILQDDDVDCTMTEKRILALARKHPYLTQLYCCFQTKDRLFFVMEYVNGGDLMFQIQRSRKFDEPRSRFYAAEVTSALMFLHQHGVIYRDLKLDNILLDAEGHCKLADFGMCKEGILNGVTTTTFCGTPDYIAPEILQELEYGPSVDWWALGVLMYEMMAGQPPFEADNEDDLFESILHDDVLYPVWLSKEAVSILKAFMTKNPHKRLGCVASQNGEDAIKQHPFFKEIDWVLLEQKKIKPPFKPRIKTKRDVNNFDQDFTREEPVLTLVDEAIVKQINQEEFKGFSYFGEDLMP
Procedure: as §1
Human recombinant PKC […] is obtained from Oxford Biomedical Research and is used under the assay conditions as described under Section A.1 above.
as §2

PKC-delta = biological target: T5, PKC-delta (Homo sapiens, UniProt Q05655); assay: Protein Kinase C assay (fluorescence polarization), PKC-delta; assay type: biochemical
T5 construct: purchased Oxford Biomedical Research
Procedure: as §1
Human recombinant PKC δ is obtained from Oxford Biomedical Research and is used under the assay conditions as described under Section A.1 above.
as §2

T2 sequence (Q04759 whole entry): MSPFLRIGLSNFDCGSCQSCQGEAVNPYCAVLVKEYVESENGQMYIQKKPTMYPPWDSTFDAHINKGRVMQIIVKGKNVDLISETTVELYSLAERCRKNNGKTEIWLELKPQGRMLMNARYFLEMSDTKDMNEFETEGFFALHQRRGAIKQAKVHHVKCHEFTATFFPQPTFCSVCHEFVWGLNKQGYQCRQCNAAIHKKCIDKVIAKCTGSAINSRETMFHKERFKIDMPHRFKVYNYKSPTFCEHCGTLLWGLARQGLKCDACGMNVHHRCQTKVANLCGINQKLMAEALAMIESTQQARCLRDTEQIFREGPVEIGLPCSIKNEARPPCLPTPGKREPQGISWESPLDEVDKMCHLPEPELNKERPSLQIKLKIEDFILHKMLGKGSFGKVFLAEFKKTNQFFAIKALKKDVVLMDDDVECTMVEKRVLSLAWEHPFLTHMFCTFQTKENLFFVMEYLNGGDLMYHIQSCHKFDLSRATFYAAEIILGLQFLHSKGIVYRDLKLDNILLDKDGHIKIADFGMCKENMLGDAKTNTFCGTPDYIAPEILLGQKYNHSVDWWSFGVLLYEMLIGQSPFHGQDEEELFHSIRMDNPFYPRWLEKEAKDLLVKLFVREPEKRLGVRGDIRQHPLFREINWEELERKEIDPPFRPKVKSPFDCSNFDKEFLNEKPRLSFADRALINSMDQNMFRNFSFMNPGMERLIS
T5 sequence (Q05655 whole entry): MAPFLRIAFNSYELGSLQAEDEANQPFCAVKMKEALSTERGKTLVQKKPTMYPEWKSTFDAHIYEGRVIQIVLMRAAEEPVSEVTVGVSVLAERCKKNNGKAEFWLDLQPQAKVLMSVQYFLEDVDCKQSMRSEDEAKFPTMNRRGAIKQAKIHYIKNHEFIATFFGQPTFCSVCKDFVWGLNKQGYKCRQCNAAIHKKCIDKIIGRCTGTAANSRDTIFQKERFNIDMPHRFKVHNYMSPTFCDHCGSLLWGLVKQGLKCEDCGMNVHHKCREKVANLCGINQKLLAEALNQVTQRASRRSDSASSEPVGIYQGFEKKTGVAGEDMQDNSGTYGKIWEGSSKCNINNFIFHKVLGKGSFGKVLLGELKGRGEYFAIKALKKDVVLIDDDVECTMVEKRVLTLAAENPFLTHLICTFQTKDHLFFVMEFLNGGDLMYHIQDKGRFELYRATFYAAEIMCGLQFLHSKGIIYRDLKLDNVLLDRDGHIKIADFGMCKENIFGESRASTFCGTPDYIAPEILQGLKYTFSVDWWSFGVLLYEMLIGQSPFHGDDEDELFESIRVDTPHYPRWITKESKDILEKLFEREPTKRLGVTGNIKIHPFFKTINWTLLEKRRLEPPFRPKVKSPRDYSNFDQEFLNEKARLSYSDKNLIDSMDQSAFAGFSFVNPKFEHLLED
T1 sequence (P05771 whole entry): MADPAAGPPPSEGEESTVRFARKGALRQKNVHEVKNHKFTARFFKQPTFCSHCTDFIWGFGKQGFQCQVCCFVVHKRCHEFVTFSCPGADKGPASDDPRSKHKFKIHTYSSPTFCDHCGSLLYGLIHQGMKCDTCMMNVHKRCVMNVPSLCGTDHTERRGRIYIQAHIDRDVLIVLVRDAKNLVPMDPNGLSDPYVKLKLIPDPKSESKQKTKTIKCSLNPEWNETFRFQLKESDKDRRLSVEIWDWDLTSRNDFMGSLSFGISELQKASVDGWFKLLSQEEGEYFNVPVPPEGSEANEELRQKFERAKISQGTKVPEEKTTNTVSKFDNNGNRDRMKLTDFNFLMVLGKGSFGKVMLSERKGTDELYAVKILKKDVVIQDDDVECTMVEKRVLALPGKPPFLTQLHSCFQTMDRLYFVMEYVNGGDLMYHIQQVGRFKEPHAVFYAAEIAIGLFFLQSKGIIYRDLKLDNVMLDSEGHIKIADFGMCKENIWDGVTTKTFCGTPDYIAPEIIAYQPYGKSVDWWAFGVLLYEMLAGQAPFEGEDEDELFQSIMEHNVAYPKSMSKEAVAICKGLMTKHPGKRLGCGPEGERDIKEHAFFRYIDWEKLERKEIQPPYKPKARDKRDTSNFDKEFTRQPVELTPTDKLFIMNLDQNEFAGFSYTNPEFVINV

| IC50 (PKC-beta) [nM] | IC50 (Human primary T cell; T-cell) [nM] | IC50 (PKC-theta) [nM] | IC50 (PKC-alpha) [nM] | IC50 (PKC-epsilon) [nM] | IC50 (PKC-delta) [nM] | Compound | IC50 (Human primary T cell) [nM] |
| --- | --- | --- | --- | --- | --- | --- | --- |
| < 250 | < 250 | < 250 | < 250 | < 250 | < 250 | CC1(C)CC(Nc2nc(Nc3ccc4c(c3)-n3nnnc3CO4)ncc2F)CC(C)(C)N1 [Compound 1-1, N2-(4H-benzo[b]tetrazolo[1,5-d][1,4]oxazin-8-yl)-5-fluoro-N4-(2,2,6,6-tetramethylpiperidin-4-yl)pyrimidine-2,4-diamine] |  |
| < 250 | < 250 | < 250 | < 250 | < 250 | < 250 | CN1C(C)(C)CC(Nc2nc(Nc3ccc4c(c3)-n3nnnc3CO4)ncc2F)CC1(C)C [Compound 1-2, N2-(4H-benzo[b]tetrazolo[1,5-d][1,4]oxazin-8-yl)-5-fluoro-N4-(1,2,2,6,6-pentamethylpiperidin-4-yl)pyrimidine-2,4-diamine] |  |
| < 250 | 500 to 1000 | < 250 | < 250 | < 250 | < 250 | CC1(C)CC(Nc2nc(Nc3ccc4c(c3)-n3nnnc3C(F)(F)O4)ncc2F)CC(C)(C)N1 [Compound 1-5, N2-(4,4-difluoro-4H-benzo[b]tetrazolo[1,5-d][1,4]oxazin-8-yl)-5-fluoro-N4-(2,2,6,6-tetramethylpiperidin-4-yl)pyrimidine-2,4-diamine] |  |
| < 250 | 250 to 500 | < 250 | < 250 | < 250 | < 250 | CN1C(C)(C)CC(Nc2nc(Nc3ccc4c(c3)-n3nnnc3C(F)(F)O4)ncc2F)CC1(C)C [Compound 1-6, N2-(4,4-difluoro-4H-benzo[b]tetrazolo[1,5-d][1,4]oxazin-8-yl)-5-fluoro-N4-(1,2,2,6,6-pentamethylpiperidin-4-yl)pyrimidine-2,4-diamine] |  |
| < 250 | < 250 | < 250 | < 250 | < 250 | < 250 | CC1(C)CC(Nc2nc(Nc3ccc4c(c3)-n3nnnc3C(C)(C)O4)ncc2F)CC(C)(C)N1 [Compound 1-7, N2-(4,4-dimethyl-4H-benzo[b]tetrazolo[1,5-d][1,4]oxazin-8-yl)-5-fluoro-N4-(2,2,6,6-tetramethylpiperidin-4-yl)pyrimidine-2,4-diamine] |  |
| < 250 | < 250 | < 250 | < 250 | < 250 | < 250 | CN1C(C)(C)CC(Nc2nc(Nc3ccc4c(c3)-n3nnnc3C(C)(C)O4)ncc2F)CC1(C)C [Compound 1-8, N2-(4,4-dimethyl-4H-benzo[b]tetrazolo[1,5-d][1,4]oxazin-8-yl)-5-fluoro-N4-(1,2,2,6,6-pentamethylpiperidin-4-yl)pyrimidine-2,4-diamine] |  |
|  | 500 to 1000 |  |  |  |  | CC1(C)CC(Nc2nc(Nc3ccc4c(c3)-c3nnnn3C(C)(C)O4)ncc2F)CC(C)(C)N1 [Compound 1-9, N2-(5,5-dimethyl-5H-benzo[e]tetrazolo[1,5-c][1,3]oxazin-9-yl)-5-fluoro-N4-(2,2,6,6-tetramethylpiperidin-4-yl)pyrimidine-2,4-diamine] |  |
|  | < 250 |  |  |  |  | CN1C(C)(C)CC(Nc2nc(Nc3ccc4c(c3)-c3nnnn3C(C)(C)O4)ncc2F)CC1(C)C [Compound 1-10, N2-(5,5-dimethyl-5H-benzo[e]tetrazolo[1,5-c][1,3]oxazin-9-yl)-5-fluoro-N4-(1,2,2,6,6-pentamethylpiperidin-4-yl)pyrimidine-2,4-diamine] |  |
| < 250 | < 250 | < 250 | < 250 | < 250 | < 250 | CC1(C)CC(Nc2nc(Nc3ccc4c(c3)-n3nnnc3C3(CCC3)O4)ncc2F)CC(C)(C)N1 [Compound 1-11, N2-{2,1-Spiro-butane-4H-tetrazolo[5,1-c][1,4]benzoxazin-8-yl}-5-fluoro-N4-(2,2,6,6-tetramethylpiperidin-4-yl)-2,4-pyrimidinediamine] |  |
| < 250 |  | < 250 | < 250 | < 250 | < 250 | CN1C(C)(C)CC(Nc2nc(Nc3ccc4c(c3)-n3nnnc3C3(CCC3)O4)ncc2F)CC1(C)C [Compound 1-12, N2-{2,1-Spiro-butane-4H-tetrazolo[5,1-c][1,4]benzoxazin-8-yl}-5-fluoro-N4-(1,2,2,6,6-pentamethylpiperidin-4-yl)-2,4-pyrimidinediamine] | < 250 |
| < 250 | < 250 | < 250 | < 250 | < 250 | < 250 | CC1Oc2ccc(Nc3ncc(F)c(NC4CC(C)(C)NC(C)(C)C4)n3)cc2-n2nnnc21 (stereo not shown) [Compound 1-17] |  |
| < 250 | < 250 | < 250 | < 250 | < 250 | < 250 | CC1Oc2ccc(Nc3ncc(F)c(NC4CC(C)(C)N(C)C(C)(C)C4)n3)cc2-n2nnnc21 (stereo not shown) [Compound 1-18] |  |
| < 250 | < 250 | < 250 | < 250 | < 250 | < 250 | CC1(C)CC(CNc2nc(Nc3ccc4c(c3)-n3nnnc3CO4)ncc2F)C(C)(C)N1 (stereo not shown) [Compound 2-1, N2-(4H-benzo[b]tetrazolo[1,5-d][1,4]oxazin-8-yl)-5-fluoro-N4-((2,2,5,5-tetramethylpyrrolidin-3-yl)methyl)pyrimidine-2,4-diamine] |  |
|  |  |  |  |  |  | N2-(4H-benzo[b]pyrrolo[1,2-d][1,4]oxazin-8-yl)-5-fluoro-N4-(1,2,2,6,6-pentamethylpiperidin-4-yl)pyrimidine-2,4-diamine [Compound 1-4] | 1000 to 5000 |
|  |  |  |  |  |  | N2-(4H-benzo[b]pyrrolo[1,2-d][1,4]oxazin-8-yl)-5-fluoro-N4-(2,2,6,6-tetramethylpiperidin-4-yl)pyrimidine-2,4-diamine [Compound 1-3] | 1000 to 5000 |
